From US11858878B2, “Gemini surfactant composition and method for treating subterranean rock” (KING FAHD UNIVERSITY OF PETROLEUM AND MINERALS, priority 2018, dated 2024)

Key:
[1] = Long-term thermal stability: aging of aqueous solutions, followed by NMR and FTIR; format: physicochemical; details: aqueous solution, sealed tube, 90° C., 10 days
Procedure: Long-Term Thermal Stability. Long-term thermal stability was assessed using a novel approach based on an aging technique. Aqueous solutions of gemini surfactants (1)-(6) were aged in a sealed tube for 10 days at 90° C. NMR (^1H, ^13C) and FTIR instruments were used to identify the changes in the structure of the surfactants after aging.
The short-term and long-term thermal stability of the synthesized gemini surfactants (1)-(6) were investigated. […] (FIG. 2). The long-term thermal stability of the gemini surfactants (1)-(6) was examined using a novel approach based on aging technique where the aqueous solutions of surfactants were aged in a sealed tube at 90° C. for 10 days. NMR (^1H, ^13C) and FTIR instruments were used to study the change in the structure of the surfactants after aging at a different period. […]
Similarly, the olefinic protons in the spacer group of 10 days aged sample of gemini surfactants 1 (FIG. 3) were also detected. […]
According to ^13C NMR spectra of the 10 days aged samples of gemini surfactants (1) and (6)(FIGS. 4 and 6), the methyl [—(CH2)n—CH3)] and methylene carbon in hydrophobic tail of gemini surfactants (1) and (6) were clearly identified. […] The olefinic carbon in hydrophobic tail of gemini surfactant (6) (FIG. 6) as well as the olefinic carbon in spacer group of gemini surfactant 1 (FIG. 4) were also detected. […]

[2] = Surface tension measurements by pendant drop method in water (cmc and surface properties); format: physicochemical; details: for Amin (nominal surface area per molecule) / Γmax × 10^6 (highest surface access at the air-water interface): air-water interface; for πcmc (ability to lower the surface tension of water) / γcmc (surface tension at cmc) / cmc (critical micelle concentration) / surface tension at all investigated concentrations (rank among surfactants): water; for γcmc (surface tension at cmc) / cmc (critical micelle concentration): pendant drop; for cmc (critical micelle concentration): intersection of two lines in plot of surface tension versus concentration; for surface tension at all investigated concentrations (rank among surfactants): FIGS. 9 and 10
Procedure: Surface Properties. Surface tensions were identified with the help of pendant drop method at 20° C. using Biolin Scientific Attension instrument. Water was used as a solvent for all surface tension experiments. The reported data points of all surface tension measurements are average equilibrium values. The critical micelle concentration (cmc) was measured from the intersection point of two lines in the plot of surface tension versus concentration.
Surface Tension Measurements. […] The surface properties can be related to the different chain length, spacer length, spacer rigidity, and to the presence of different counterions in the gemini surfactants.
The gemini surfactant ability to lower the surface tension of water (πcmc), highest surface access (rmax) at the interface of air-water, as well as nominal surface area per molecule (Amin) was given in Table 1. The method used to calculate these properties was also given in our previous publication; Hussain S S, Animashaun M A, Kamal M S, Ullah N, Hussein I A, Sultan A S (2016) Synthesis, Characterization and Surface Properties of Amidosulfobetaine Surfactants Bearing Odd-Number Hydrophobic Tail. J Surfactants Deterg 19 (2):413-420, incorporated herein by reference in its entirety.

[3] = aqueous solution; cited from earlier work

SMILES | long-term thermal stability (structure change by NMR, FTIR after aging) [1] | Amin (nominal surface area per molecule) [2] [nm^2] | Γmax × 10^6 (highest surface access at the air-water interface) [2] [mol m^−2] | πcmc (ability to lower the surface tension of water) [2] [mN m^−1] | γcmc (surface tension at cmc) [2] [mN m^−1] | cmc (critical micelle concentration) [2] [mol/L] | surface tension at all investigated concentrations (rank among surfactants) [2] | temperature of prolonged heating that causes decomposition [3] [°C]
CCCCCCCCCCCC(=O)NCCC[N+](C)(C)C/C=C/C[N+](C)(C)CCCNC(=O)CCCCCCCCCCC.[Br-].[Br-] [Surfactant 1] | no structural changes occurred | 0.91 | 1.81 | 35.77 | 36.23 | 0.000256 |  | 
CCCCCCCCCCCC(=O)NCCC[N+](C)(C)C/C=C\C[N+](C)(C)CCCNC(=O)CCCCCCCCCCC.[Cl-].[Cl-] [Surfactant 2] |  | 1.05 | 1.60 | 33.88 | 38.12 |  | highest surface tension | 
CCCCCCCC/C=C\CCCCCCCC(=O)NCCC[N+](C)(C)CCCCCC[N+](C)(C)CCCNC(=O)CCCCCCC/C=C\CCCCCCCC.[Br-].[Br-] [Surfactant 6] | no structural changes occurred | 0.70 | 2.38 | 41.66 | 30.34 | 7.7e-05 | least surface tension | 
CCCCCCCC/C=C\CCCCCCCC(=O)NCCC[N+](C)(C)CCCC[N+](C)(C)CCCNC(=O)CCCCCCC/C=C\CCCCCCCC.[Br-].[Br-] [Surfactant 5] |  | 0.73 | 2.26 | 39.08 | 32.92 | 0.000105 |  | 
CCCCCCCC/C=C\CCCCCCCC(=O)NCCC[N+](C)(C)C/C=C/C[N+](C)(C)CCCNC(=O)CCCCCCC/C=C\CCCCCCCC.[Br-].[Br-] [Surfactant 3] |  | 0.86 | 1.92 | 36.33 | 35.67 | 0.000158 |  | 
CCCCCCCCCCCCOS(=O)(=O)[O-].[Na+] [sodium dodecyl sulfate (SDS), sodium dodecyl sulfate] |  |  |  |  |  |  |  | ≥ 40
CCCCCCCC/C=C\CCCCCCCC(=O)NCCC[N+](C)(C)C/C=C\C[N+](C)(C)CCCNC(=O)CCCCCCC/C=C\CCCCCCCC.[Cl-].[Cl-] [Surfactant 4] |  | 1.01 | 1.64 | 34.77 | 37.23 | 0.000291 |  | 
